The results in this text go back to patent US11160785B2, “Methods and compositions for improving cognitive function” (AgeneBio, Inc., priority 2013, dated 2021).

One assay relates to somatostatin in DG hilus. Briefly: Somatostatin (SOM) immunohistochemistry, hilar interneuron counts in aged-impaired rats. It counts as in vivo, rat. The note with it: 10 mg/kg/day, four-week treatment, AI-LEV vs AI-VEH p<0.01, AI-LEV vs Y p=0.679. The text has this: Tissue was labeled with anti-SOM antiserum (Santa Cruz Biotechnology; cat. no. SC7819-P) using an established immunoperoxidase protocol and tissue sections were processed concurrently to minimize inter-replication variability (Haberman et al., 2009). The anti-SOM antiserum can detect somatostatin. Briefly, sections were washed in 0.1M phosphate-buffered saline (PBS) to remove cryoprotectant, and endogenous peroxidases were quenched in 0.3% H202 in PBS. After additional PBS washes, sections were blocked in 5% normal horse serum in PBS with 0.3% Triton. Sections were then incubated with primary antibody at a dilution of 1:1600 in PBS containing 0.15% Triton and 3% normal serum for 72 hours at 4° C. with agitation. […] The secondary antibody was detected with avidin-biotin complex (ABC Elite; Vector Laboratories Inc., Burlingame, Calif.) and the avidin-biotin complex was visualized with nickel-enhanced diaminobenzadine (Vector Laboratories Inc., Burlingame, Calif.). […]
Interneuron quantification was performed using a Zeiss Axioplan 2 microscope equipped with a motorized stage. […] Neuron counts were analyzed as the total number of hilar interneurons per hippocampal section for each rat.

Assay [1] relates to DG/CA3 regions of aMCI subjects. Description: fMRI activity in DG/CA3 during lure stimuli correctly identified as similar. It counts as in vivo, human.
Another assay has as its system sematostatin in DG hilus. Briefly: somatostatin in DG hilus after four weeks of osmotic minipump treatment (Example 5). It counts as in vivo, rat. To be noted: levetiracetam 10 mg/kg/day in osmotic minipumps for four weeks, aged-impaired rats.
Another assay concerns aMCI subjects. Briefly: explicit 3-alternative forced choice task (lure images). It counts as in vivo, human. The text has this: See Folstein et al., J Psychiatric Res 12: 189-98, (1975); Robbins et al., Dementia 5: 266-81, (1994); Rey, L'examen clinique en psychologie, (1964); Kluger et al., J Geriatr Psychiatry Neurol 12:168-79, (1999); Marquis et al., 2002 and Masur et al., 1994, or MATRICS consensus neuropsychological test battery which includes tests of working memory, speed of processing, attention, verbal learning, visual learning, reasoning and problem solving and social cognition. Another example of a cognitive test in humans is the explicit 3-alternative forced choice task. In this test, subjects are presented with color photographs of common objects consisting of a mix of three types of image pairs: similar pairs, identical pairs and unrelated foils. The second of the pair of similar objects is referred to as the “lure”. These image pairs are fully randomized and present individually as a series of images. Subjects are instructed to make a judgment as to whether the objects seen are new, old or similar. A “similar” response to the presentation of a lure stimulus indicates successful memory retrieval by the subject.
The activity of the subject's medial temporal lobe is measured by functional MRI during the subject's participation in an explicit 3-alternative forced choice task, where participants view novel, repeated and similar (“lure”) stimuli. The Psychophysics Toolbox extensions in Matlab 7.0 (The MathWorks, Natick, Mass.) is used for stimulus presentation and behavioral data collection. Stimuli are color photographs of common objects. Each participant undergoes a series of testing runs during the functional imaging sessions, each run consisting of a mix of three types of image pairs: similar pairs, identical pairs and unrelated foils. These image pairs are fully randomized throughout the run and present individually as a series of images (see FIG. 6A). […]
The activity of the subject's medial temporal lobe is measured by functional MRI during the subject's participation in an explicit 3-alternative forced choice task, where participants view novel, repeated and similar (“lure”) stimuli. […]

As for `CC[C@@H](C(N)=O)N1CCCC1=O` [levetiracetam, (2S)-2-(2-oxopyrrolidin-1-yl) butanamide], the “levels of somatostatin in DG hilus (number of SOM-immunoreactive hilar neurons)” value in the assay with somatostatin in DG hilus is “restores the levels of somatostatin”. The “DG/CA3 hyperactivity during successful memory judgments” value in assay [1] (levetiracetam 62.5 mg BID for two weeks, cohort N=20) was “does not significantly reduce the DG/CA3 hyperactivity”; in assay [1] (levetiracetam 250 mg BID for two weeks, cohort N=17), “does not significantly reduce the DG/CA3 hyperactivity”. Moreover, in assay [1] (levetiracetam 125 mg twice a day for two weeks vs placebo, same aMCI subjects, p=0.037), the “DG/CA3 activity during successful memory judgments” value is recorded as “reduces DG/CA3 hyper-activity”. Also, the “somatostatin in DG hilus” value in the assay on sematostatin in DG hilus is reported as “restores sematostatin in DG hilus”. The “performance of aMCI subjects in the memory task (similar vs old responses to lures)” value in the assay with aMCI subjects (levetiracetam 62.5 mg BID for two weeks vs placebo, p=0.041) is “improves significantly”; with aMCI subjects (levetiracetam 125 mg twice a day for two weeks vs placebo, p=0.039), “improves significantly”; in the assay with aMCI subjects (levetiracetam 250 mg BID for two weeks vs placebo, p=0.2396), “does not significantly improve”.
